Where “and” joins values, the source holds several entries; their conditions need not be identical. Equal entries are not always repeated. A value given as a limit tells only on which side of the number the result lay.

The source of these data is patent US20210253562A1, “ACYLSUFONAMIDE COMPOUNDS USEFUL AS EP3 RECEPTOR ANTAGONISTS” (Janssen Pharmaceutica NV, priority 2018, published 2021).

The assay concerns the target T1, EP3 membrane (EP3 receptor) (Homo sapiens, UniProt P43115).
T1 construct: purchased Millipore HTS092M
T1 sequence (P43115 1-390): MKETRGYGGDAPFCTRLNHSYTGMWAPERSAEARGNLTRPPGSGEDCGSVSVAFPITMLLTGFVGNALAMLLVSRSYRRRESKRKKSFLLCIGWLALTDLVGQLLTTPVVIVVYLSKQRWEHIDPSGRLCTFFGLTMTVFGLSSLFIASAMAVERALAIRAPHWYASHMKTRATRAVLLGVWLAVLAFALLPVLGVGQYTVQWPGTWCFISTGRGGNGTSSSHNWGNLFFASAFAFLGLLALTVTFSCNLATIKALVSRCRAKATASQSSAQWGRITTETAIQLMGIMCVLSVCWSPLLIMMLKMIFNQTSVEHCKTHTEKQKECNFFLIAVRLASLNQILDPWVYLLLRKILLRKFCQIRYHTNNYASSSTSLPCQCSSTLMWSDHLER
Nature of the assay: [3H]-PGE2 binding; EP3 competition binding (SPA). The protocol: Biological Example 1: [3H]-PGE2 Binding
EP3 competition binding was determined using the following materials and experimental conditions: • Beads=Perkin Elmer RPNQ0001 • [3H]PGE2=Perkin Elmer NET428025UC • 384-well plate=Perkin Elmer 6007290 • EP3 membrane=Millipore HTS092M • Membrane concentration=2 μg/well • Beads concentration=0.25 mg/well • [3H]-PGE2=2 nM; DMSO—0.1% • Binding buffer=50 mM Tris, 10 mM MgCl2, 1 mM EDTA, PH 7.4.
The reaction system was prepared by mixing 5 μl of unlabeled compound; 5 μl of diluted [3H]-PGE2; 5 μl of diluted membrane; and 15 μl of SPA beads dissolved in binding buffer (adding in the following sequence: Unlabeled compound, [3H]-PGE2, Membrane and Beads).
The binding buffer was removed from refrigeration (@ 4° C.) and allowed to warm to room temperature. Test compound (@ stock concentration of […] in DMSO) was serial dilutes (1:3) with 100% DMSO using Echo plate. Diluted test compound (30 nL) was dispensed to the 384-well assay plate (using Echo 550 Labcyte System). To each well was then added assay buffer (5 μl) and each well was spun. Beads were weighed out, dissolved in assay buffer to a concentration of 0.25 mg/15 μl. Original membrane was diluted with assay buffer to a concentration of 2 μg/5 μl. Original [3H]-PGE2 with diluted with assay buffer to a concentration of 12 nM. To each test well were then added diluted [3H]-PGE2 (5 μl), diluted membrane (5 μl), and dissolved beads (15 μl). The plate was equilibrated at room temperature on a plate shaker for 2 hours and then read with a TOPCOUNT scintillation plate reader. Results were analyzed using a Prism program with non-linear regression, one-site fit for Ki.
For orientation: Ki means a dissociation constant, usually derived from enzyme kinetics or from competition with a known ligand. `O=C(NC/C=C1\CCCc2cnn(Cc3ncc(-c4ccccc4)cn3)c21)NS(=O)(=O)c1cc(Cl)c(Cl)s1` [Compound #163, (E)-4,5-dichloro-N-((2-(1-((5-phenylpyrimidin-2-yl)methyl)-1,4,5,6-tetrahydro-7H-indazol-7-ylidene)ethyl)carbamoyl)thiophene-2-sulfonamide] came in with a Ki greater than 10000 nM. The result for `COc1ccc(S(=O)(=O)NC(=O)NC/C(F)=C2\CCCc3cnn(Cc4ccc(Cl)cc4Cl)c32)cc1F` [Compound #159, (Z)—N-((2-(1-(2,4-Dichlorobenzyl)-1,4,5,6-tetrahydro-7H-indazol-7-ylidene)-2-fluoroethyl)carbamoyl)-3-fluoro-4-methoxybenzenesulfonamide] reads 22 nM; that for `Cn1nc(Cc2ccc(Cl)cc2Cl)c2c1COC/C2=C(/F)CNC(=O)NS(=O)(=O)c1cc(Cl)c(Cl)s1` [Compound #186, (E)-4,5-dichloro-N-((2-(3-(2,4-dichlorobenzyl)-1-methyl-1,7-dihydropyrano[3,4-c]pyrazol-4(5H)-ylidene)-2-fluoroethyl)carbamoyl)thiophene-2-sulfonamide], 30 nM; that for `O=C(NC/C(F)=C1\CCCc2cnn(Cc3cnn(-c4ccccc4)c3)c21)NS(=O)(=O)c1cc(Cl)c(Cl)s1` [Compound #191, (Z)-4,5-dichloro-N-((2-fluoro-2-(1-((1-phenyl-1H-pyrazol-4-yl)methyl)-1,4,5,6-tetrahydro-7H-indazol-7-ylidene)ethyl)carbamoyl)thiophene-2-sulfonamide], 15 nM. `Cn1ncc2cc(S(=O)(=O)NC(=O)NC/C(F)=C3\CCCc4cnn(Cc5ccc(Cl)cc5Cl)c43)ccc21` [Compound #195, (Z)—N-((2-(1-(2,4-dichlorobenzyl)-1,4,5,6-tetrahydro-7H-indazol-7-ylidene)-2-fluoroethyl)carbamoyl)-1-methyl-1H-indazole-5-sulfonamide] gave a Ki of 45 nM. As to `O=C(NC/C(F)=C1\COCc2cnn(C3CCN(c4ccc(F)cc4)CC3)c21)NS(=O)(=O)c1cc(Cl)c(Cl)s1` [Compound #144, (E)-4,5-dichloro-N-((2-fluoro-2-(1-(1-(4-fluorophenyl)piperidin-4-yl)-1,4-dihydropyrano[4,3-c]pyrazol-7(6H)-ylidene)ethyl)carbamoyl)thiophene-2-sulfonamide], affinity was put at a Ki of 62 nM. The result for `Cc1cc(S(=O)(=O)NC(=O)NC/C(F)=C2\CCCc3cnn(Cc4ccc(Cl)cc4Cl)c32)sc1C` [Compound #142, (Z)—N-((2-(1-(2,4-dichlorobenzyl)-1,4,5,6-tetrahydro-7H-indazol-7-ylidene)-2-fluoroethyl)carbamoyl)-4,5-dimethylthiophene-2-sulfonamide] reads 8 nM; that for `CN1CCC(n2ncc3c2/C(=C/CNC(=O)NS(=O)(=O)c2cc(Cl)c(Cl)s2)CCC3)CC1` [Compound #151, (E)-4,5-dichloro-N-((2-(1-(1-methylpiperidin-4-yl)-1,4,5,6-tetrahydro-7H-indazol-7-ylidene)ethyl)carbamoyl)thiophene-2-sulfonamide], 102 nM; that for `Cc1cc(Cl)ccc1Cc1nnn2c1/C(=C(\F)CNC(=O)NS(=O)(=O)c1cc(Cl)c(Cl)s1)CCC2` [Compound #167, (Z)-4,5-dichloro-N-((2-(3-(4-chloro-2-methylbenzyl)-6,7-dihydro-[1,2,3]triazolo[1,5-a]pyridin-4(5H)-ylidene)-2-fluoroethyl)carbamoyl)thiophene-2-sulfonamide], 7 nM.

`COc1ccc(S(=O)(=O)NC(=O)NC/C(F)=C2\COCc3cnn(Cc4ccc(Cl)cc4Cl)c32)cc1F` [Compound #161, (E)-N-((2-(1-(2,4-dichlorobenzyl)-1,4-dihydropyrano[4,3-c]pyrazol-7(6H)-ylidene)-2-fluoroethyl)carbamoyl)-3-fluoro-4-methoxybenzenesulfonamide] showed a Ki of 57 nM. With `Cn1nccc1S(=O)(=O)NC(=O)NC/C(F)=C1\CCCc2cnn(Cc3ccc(Cl)cc3Cl)c21` [Compound #168, (Z)—N-((2-(1-(2,4-dichlorobenzyl)-1,4,5,6-tetrahydro-7H-indazol-7-ylidene)-2-fluoroethyl)carbamoyl)-1-methyl-1H-pyrazole-5-sulfonamide], the Ki came to 232 nM.

In the case of `COc1cc(S(=O)(=O)NC(=O)NC/C(F)=C2\CCCc3cnn(Cc4ccc(Cl)cc4Cl)c32)ccc1Cl` [Compound #175, (Z)-4-Chloro-N-((2-(1-(2,4-dichlorobenzyl)-1,4,5,6-tetrahydro-7H-indazol-7-ylidene)-2-fluoroethyl)carbamoyl)-3-methoxybenzenesulfonamide], the Ki stood at 16 nM. The result for `COc1nc2ccc(S(=O)(=O)NC(=O)NC/C(F)=C3\CCCc4cnn(Cc5ccc(Cl)cc5Cl)c43)cc2o1` [Compound #178, (Z)—N-((2-(1-(2,4-dichlorobenzyl)-1,4,5,6-tetrahydro-7H-indazol-7-ylidene)-2-fluoroethyl)carbamoyl)-2-methoxybenzo[d]oxazole-6-sulfonamide] reads 6 nM; that for `Cc1cc(S(=O)(=O)NC(=O)NC/C(F)=C2\COCc3cnn(Cc4ccc(Cl)cc4Cl)c32)sc1Cl` [Compound #166, (E)-5-chloro-N-((2-(1-(2,4-dichlorobenzyl)-1,4-dihydropyrano[4,3-c]pyrazol-7(6H)-ylidene)-2-fluoroethyl)carbamoyl)-4-methylthiophene-2-sulfonamide], 6 nM and 7 nM; that for `Cn1nccc1S(=O)(=O)NC(=O)NC/C=C1\CCCc2cnn(Cc3ccc(Cl)cc3Cl)c21` [Compound #171, (E)-N-((2-(1-(2,4-dichlorobenzyl)-1,4,5,6-tetrahydro-7H-indazol-7-ylidene)ethyl)carbamoyl)-1-methyl-1H-pyrazole-5-sulfonamide], 18 nM. Next, `CC(C)n1cc(S(=O)(=O)NC(=O)NC/C(F)=C2\CCCc3cnn(Cc4ccc(Cl)cc4Cl)c32)cn1` [Compound #170, (Z)—N-((2-(1-(2,4-dichlorobenzyl)-1,4,5,6-tetrahydro-7H-indazol-7-ylidene)-2-fluoroethyl)carbamoyl)-1-isopropyl-1H-pyrazole-4-sulfonamide]: 612 nM; `O=C(NC/C(F)=C1\CCCn2nnc(-c3ccc(C(F)(F)F)cc3)c21)NS(=O)(=O)c1cc(Cl)c(Cl)s1` [Compound #164, (Z)-4,5-dichloro-N-((2-fluoro-2-(3-(4-(trifluoromethyl)phenyl)-6,7-dihydro-[1,2,3]triazolo[1,5-a]pyridin-4(5H)-ylidene)ethyl)carbamoyl)thiophene-2-sulfonamide]: 3200 nM; `Cc1cc(S(=O)(=O)NC(=O)NC/C(F)=C2\CCCc3[nH]nc(Cc4ccc(Cl)cc4Cl)c32)sc1Cl` [Compound #187, (Z)-5-chloro-N-((2-(3-(2,4-dichlorobenzyl)-1,5,6,7-tetrahydro-4H-indazol-4-ylidene)-2-fluoroethyl)carbamoyl)-4-methylthiophene-2-sulfonamide]: 1 nM. Next, `Cc1ncc(S(=O)(=O)NC(=O)NC/C(F)=C2\CCCc3cnn(Cc4ccc(Cl)cc4Cl)c32)cc1Cl` [Compound #197, (Z)-5-chloro-N-((2-(1-(2,4-dichlorobenzyl)-1,4,5,6-tetrahydro-7H-indazol-7-ylidene)-2-fluoroethyl)carbamoyl)-6-methylpyridine-3-sulfonamide]: 8 nM; `COc1nc2ccc(S(=O)(=O)NC(=O)NC/C=C3\CCCc4cnn(Cc5ccc(Cl)cc5Cl)c43)cc2o1` [Compound #177, (E)-N-((2-(1-(2,4-dichlorobenzyl)-1,4,5,6-tetrahydro-7H-indazol-7-ylidene)ethyl)carbamoyl)-2-methoxybenzo[d]oxazole-6-sulfonamide]: 1 nM. `Cc1nc(C)c(S(=O)(=O)NC(=O)NC/C(F)=C2\COCc3cnn(Cc4ccc(Cl)cc4Cl)c32)s1` [Compound #160, (E)-N-((2-(1-(2,4-dichlorobenzyl)-1,4-dihydropyrano[4,3-c]pyrazol-7(6H)-ylidene)-2-fluoroethyl)carbamoyl)-2,4-dimethylthiazole-5-sulfonamide] registered a Ki of 217 nM.

In turn, `Cc1cc(Cl)ccc1Cc1nnn2c1/C(=C(\F)CNC(=O)NS(=O)(=O)c1cc(C)c(Cl)s1)CCC2` [Compound #188, (Z)-5-chloro-N-((2-(3-(4-chloro-2-methylbenzyl)-6,7-dihydro-[1,2,3]triazolo[1,5-a]pyridin-4(5H)-ylidene)-2-fluoroethyl)carbamoyl)-4-methylthiophene-2-sulfonamide] came in with a Ki of 8 nM. Against the preceding molecule, the Ki is about 27-fold lower.
